Patent US7115662B2, “Certain 5-alkyl-2-arylaminophenylacetic acids and derivatives” (Novartis AG, priority 1997, dated 2006)

What was measured:
gross gastric ulceration = assay: gastric tolerability assay; type: in vivo; details: rat; 100 mg/kg p.o.; four hours after administration
Description: The gastric tolerability assay is used to assess gross ulceration in the rat, measured four hours after oral administration of the test compound. The test is carried out as follows: Rats are fasted overnight, administered compound in fortified cornstarch vehicle by gavage, and sacrificed by carbon dioxide inhalation four hours later. The stomachs are removed and gross gastric lesions counted and measured to give the total lesion length per rat. Each experiment contains the following groups (5–6 rats per group): vehicle control, test compounds, and diclofenac as a reference compound. Data are calculated as the mean number of ulcers in a group, the mean length of ulcers (mm) in the group and as the ulcer index (UI). UI=mean length of ulcers in a group×ulcer incidence where ulcer incidence is the fraction of animals in the group with lesions (100% incidence is 1).

intestinal permeability = assay: intestinal tolerability (51Cr-EDTA intestinal permeability); type: in vivo; details: rat; 30 mg/kg p.o.; 51Cr-EDTA urinary excretion over 24 h
Description: Intestinal tolerability can be determined by measuring the effect on intestinal permeability. Lack of increase in permeability is indicative of intestinal tolerability. The method used is a modification of a procedure by Davies, et al., Pharm. Res. 1994; 11:1652–1656 and is based on the fact that excretion of orally administered ^51Cr-EDTA, a marker of small intestinal permeability, is increased by NSAIDs. Groups of rats (≧12/group) are administered a single, oral dose of test compound or vehicle by gastric intubation. Immediately following compound dose, each rat is administered ^51Cr-EDTA (5 μCi/rat) by gastric intubation. The rats are placed in individual metabolic cages and given food and water ad libitum. Urine is collected over a 24 hour period. Twenty-four hours after administration of ^51Cr-EDTA the rats are sacrificed. To quantify compound effect on intestinal permeability, the excreted ^51Cr-EDTA measured in the urine of compound treated rats is compared to the excreted ^51Cr-EDTA measured in the urine of vehicle treated rats. Relative permeability is determined by calculating the activity present in each urine sample as a percent of the administered dose after correcting for background radiation.

[1] = test system: pain threshold in yeast-inflamed paw; assay: Randall-Selitto paw pressure assay; type: in vivo, rat; details: male Wistar rats; 10 mg/kg orally; 1 h after dosing
Description: The analgesic activity of the compounds of the invention is determined using the well-known Randall-Selitto assay.
The Randall-Selitto paw pressure assay measures antinociception (analgesic activity) in inflamed tissue by comparing the pressure threshold in the inflamed paw of the rat after oral administration of test drug with that in the inflamed paw of rats administered corn starch vehicle orally.
Groups of 10 male Wistar rats weighing 40–50 gms are fasted overnight prior to testing. Hyperalgesia is induced by the injection of 0.1 ml of a 20% suspension of Brewer's yeast with a 26 gauge needle into the subplantar region of the right hindpaw. The left paw is not injected and is used as the control paw for determination of hyperalgesia. Vehicle (Fortified corn starch suspension 3%) at 10 ml/kg, reference compound (diclofenac is run in every experiment at the same dose as test compounds) and test compounds at different doses suspended in vehicle at 10 ml/kg are administered orally 2 hours after the yeast injection. The threshold for paw withdrawal is quantified with a Basile Analgesy-meter 1 hour after oral administration of test compounds. The nociceptive threshold is defined as the force in grams at which the rat withdraws its foot or vocalizes. Either vocalization or foot withdrawal is recorded as a response.
The data are analyzed by comparing the mean pain threshold of the corn starch vehicle-treated group for the inflamed and non-inflamed paws to that of individual drug-treated rats. Individual rats in the drug-treated groups and positive control (diclofenac) group are called reactors if the individual pain threshold in each paw exceeds the control group mean threshold by two standard deviations of that mean. The mean pain thresholds of the inflamed paw in the control group are compared to the individual pain thresholds of the inflamed paw in the test drug group. The non-inflamed control mean pressure threshold is compared to the non-inflamed individual pressure thresholds in the test groups. Results are expressed as number of reactors in each test group (n=10) for inflamed and non-inflamed paws. Percentages are calculated by dividing number of reactors by total number of rats used for a compound.

SMILES	melting point	other results
Cc1ccc(Nc2c(F)cc(Cl)cc2Cl)c(CC(=O)OCC(=O)O)c1 [Example 6(g), carboxymethyl 5-methyl-2-(2′-fluoro-4′,6′-dichloroanilino)phenylacetate]	148 to 150 °C	–
CCc1ccc(Nc2c(F)cc(Cl)cc2Cl)c(CC(=O)O)c1 [Example 2(f), 5-ethyl-2-(2′,4′-dichloro-6′-fluoroanilino)phenylacetic acid]	169 to 171 °C	–
CCOc1c(F)c(F)c(Nc2ccc(CC)cc2CC(=O)O)c(F)c1F [Example 2(d), 5-ethyl-2-(2′,3′,5′,6′-tetrafluoro-4′-ethoxyanilino)phenylacetic acid]	131 to 132 °C	–
Cc1ccc(Nc2c(F)cccc2Cl)c(CC(=O)OCC(=O)O)c1 [Example 6(i), carboxymethyl 5-methyl-2-(2′-chloro-6′-fluoroanilino)phenylacetate]	96 to 98 °C	–
CCc1ccc(Nc2c(F)cc(F)cc2Cl)c(CC(=O)OCC(=O)O)c1 [Example 6(d), carboxymethyl 5-ethyl-2-(2′,4′-difluoro-6′-chloroanilino)phenylacetate]	142 to 144 °C	–
Cc1cc(Cl)c(Nc2ccc(C)cc2CC(=O)O)c(Cl)c1 [Example 1(e), 5-methyl-2-(2′,6′-dichloro-4′-methylanilino)phenylacetic acid]	179 to 182 °C	–
Cc1ccc(Nc2c(Cl)cccc2Cl)c(CC(=O)OCC(=O)O)c1 [Example 6(h), carboxymethyl 5-methyl-2-(2′,6′-dichloroanilino)phenylacetate]	125 to 126 °C	–
CCc1ccc(Nc2c(F)c(F)cc(F)c2F)c(CC(=O)OC(C)(C)C(=O)O)c1 [Example 8, 1-carboxy-1-methylethyl 5-ethyl-2-(2′,3′,5′,6′-tetrafluoroanilino)phenylacetate]	104 to 108 °C	–
Cc1ccc(Nc2c(C)cc(F)cc2Cl)c(CC(=O)O)c1 [Example 1(i), 5-methyl-2-(2′-chloro-4′-fluoro-6′-methylanilino)phenylacetic acid]	154 to 156 °C	–
Cc1ccc(Nc2c(F)cc(O)cc2Cl)c(CC(=O)O)c1 [Example 1(j), 5-methyl-2-(2′-chloro-4′-hydroxy-6′-fluoroanilino)phenylacetic acid]	180 to 182 °C	–
Cc1ccc(Nc2c(F)c(F)cc(F)c2F)c(CC(=O)O)c1 [Example 1(b), 5-methyl-2-(2′,3′,5′,6′-tetrafluoroanilino)phenylacetic acid]	153 to 156 °C	–
Cc1ccc(Nc2c(F)cccc2C(F)(F)F)c(CC(=O)O)c1 [Example 9(a), 5-methyl-2-(2′-fluoro-6′-trifluoromethylanilino)phenylacetic acid]	155 to 156 °C	–
Cc1ccc(Nc2c(F)cc(Cl)cc2Cl)c(CC(=O)O)c1 [Example 1(h), 5-methyl-2-(2′-fluoro-4′,6′-dichloroanilino)phenylacetic acid]	178 to 180 °C	–
CCc1ccc(Nc2c(F)ccc(F)c2F)c(CC(=O)O)c1 [Example 2(c), 5-ethyl-2-(2′,3′,6′-trifluoroanilino)phenylacetic acid]	138 to 140 °C	–
CCc1ccc(Nc2c(F)cc(Cl)cc2Cl)c(CC(=O)OCC(=O)O)c1 [Example 6(e), carboxymethyl 5-ethyl-2-(2′,4′-dichloro-6′-fluoroanilino)phenylacetate]	132 to 134 °C	–
CCc1ccc(Nc2c(F)c(F)cc(F)c2F)c(CC(=O)OCC(=O)O)c1 [6(a), carboxymethyl 5-ethyl-2-(2′,3′,5′,6′-tetrafluoroanilino)phenylacetate]	151 to 153 °C	gastric ulcerogenic effect (gross gastric ulceration): essentially free of any gastric ulcerogenic effect; effect on intestinal permeability (intestinal permeability): no effect or only a minimal effect; pain threshold in the inflamed paw [1]: increase the pain threshold; pain threshold in the non-inflamed paw [1]: no threshold elevation
CCc1ccc(Nc2c(C)cc(Cl)cc2Cl)c(CC(=O)OCC(=O)O)c1 [Example 6(b), carboxymethyl 5-ethyl-2-(2′,4′-dichloro-6′-methylanilino)phenylacetate]	123 to 125 °C	–

More lines, main results first:

melting point	SMILES	other results
106 to 108 °C	CCc1ccc(Nc2c(F)cccc2Cl)c(CC(=O)OCC(=O)O)c1 [Example 6(f), carboxymethyl 5-ethyl-2-(2′-chloro-6′-fluoroanilino)phenylacetate]	–
180 to 183 °C	CCc1ccc(Nc2c(C)cc(Cl)cc2Cl)c(CC(=O)O)c1 [Example 3(b), 5-ethyl-2-(2′,4′-dichloro-6′-methylanilino)phenylacetic acid]	–
125 to 126 °C	CCc1ccc(Nc2c(C)cccc2Cl)c(CC(=O)O)c1 [Example 2(b), 5-ethyl-2-(2′-chloro-6′-methylanilino)phenylacetic acid]	–
143 to 145 °C	CCc1ccc(Nc2c(C)cc(F)cc2F)c(CC(=O)O)c1 [Example 5(b), 5-ethyl-2-(2′,4′-difluoro-6′-methylanilino)phenylacetic acid]	–
138 to 140 °C	Cc1ccc(Nc2c(C)cccc2Cl)c(CC(=O)O)c1 [Example 1(f), 5-methyl-2-(2′-chloro-6′-methylanilino)phenylacetic acid]	–
124 to 126 °C	CCc1ccc(Nc2c(Cl)cccc2Cl)c(CC(=O)OCC(=O)O)c1 [Example 6(c), carboxymethyl 5-ethyl-2-(2′,6′-dichloroanilino)phenylacetate]	–
168 to 170 °C	Cc1ccc(Nc2c(Cl)cccc2Cl)c(CC(=O)O)c1 [Example 1(c), 5-methyl-2-(2′,6′-dichloroanilino)phenylacetic acid]	–
133 to 136 °C	CCc1ccc(Nc2c(Cl)cccc2Cl)c(CC(=O)O)c1 [Example 3(c), 5-ethyl-2-(2′,6′-dichloroanilino)phenylacetic acid]	–
151 to 154 °C	CCc1ccc(Nc2c(C)cc(F)cc2Cl)c(CC(=O)O)c1 [Example 5(c), 5-ethyl-2-(2′-chloro-4′-fluoro-6′-methylanilino)phenylacetic acid]	–
147 to 148 °C	CCc1ccc(Nc2c(F)cccc2Cl)c(CC(=O)O)c1 [Example 2(a), 5-ethyl-2-(2′-fluoro-6′-chloroanilino)phenylacetic acid]	–
160 to 162 °C	CCc1ccc(Nc2c(F)cc(F)cc2Cl)c(CC(=O)O)c1 [Example 2(e), 5-ethyl-2-(2′-chloro-4′,6′-difluoroanilino)phenylacetic acid]	–
